Where “and” joins values, the source holds several entries; their conditions need not be identical. Equal values may be shown once. Toxic doses and inconclusive results are not listed.
Tested on: P388 leukemia ip, CD2F1 mice, survival T/C
Assay: NCI In Vivo Anticancer Drug Screen. Data for tumor model P388 Leukemia (intraperitoneal) in CD2F1 (CDF1) mice
Conditions: endpoint: median survival time, higher = longer survival
Method in brief: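 Mice carrying the transplanted tumor received test compound or vehicle. Survival was recorded in each group, and the value is the treated-group measurement divided by that of the vehicle-treated control group.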

[1] = dose: 200.0 mg/kg/injection, schedule: Q01DX009 (ip), vehicle: saline with Tween-80
[2] = dose: 50.0 mg/kg/injection, schedule: Q01DX005 (ip), vehicle: Klucel (hydroxypropylcellulose) (HPC)
[3] = dose: 100.0 mg/kg/injection, schedule: Q01DX005 (ip), vehicle: Klucel (hydroxypropylcellulose) (HPC)
[4] = dose: 200.0 mg/kg/injection, schedule: Q01DX005 (ip), vehicle: Klucel (hydroxypropylcellulose) (HPC)
[5] = dose: 50.0 mg/kg/injection, schedule: Q01DX005 (ip), vehicle: saline with Tween-80
[6] = dose: 100.0 mg/kg/injection, schedule: Q01DX005 (ip), vehicle: saline with Tween-80
[7] = dose: 200.0 mg/kg/injection, schedule: Q01DX005 (ip), vehicle: saline with Tween-80
[8] = dose: 25.0 mg/kg/injection, schedule: Q04DX003 (ip), vehicle: Klucel (hydroxypropylcellulose) (HPC)
[9] = dose: 50.0 mg/kg/injection, schedule: Q04DX003 (ip), vehicle: Klucel (hydroxypropylcellulose) (HPC)
[10] = dose: 100.0 mg/kg/injection, schedule: Q04DX003 (ip), vehicle: Klucel (hydroxypropylcellulose) (HPC)
[11] = dose: 25.0 mg/kg/injection, schedule: Q01DX009 (ip), vehicle: saline
[12] = dose: 100.0 mg/kg/injection, schedule: Q01DX005 (ip), vehicle: saline

## Nc1nc2c(ncn2C2OC(CO)C(O)C2O)c(=O)[nH]1 (centres undefined)
dose: 25.0 mg/kg/injection, schedule: Q04DX003 (ip), vehicle: saline with Tween-80
  T/C: 103 % of control and 106 % of control
dose: 50.0 mg/kg/injection, schedule: Q04DX003 (ip), vehicle: saline with Tween-80
  T/C: 120 % of control
dose: 100.0 mg/kg/injection, schedule: Q01DX009 (ip), vehicle: suspension in saline
  T/C: 110 % of control
dose: 100.0 mg/kg/injection, schedule: Q04DX003 (ip), vehicle: saline with Tween-80
  T/C: 90 % of control
[1]
  T/C: 111 % of control
dose: 200.0 mg/kg/injection, schedule: Q01DX009 (ip), vehicle: suspension in saline
  T/C: 92 % of control
dose: 300.0 mg/kg/injection, schedule: Q01DX009 (ip), vehicle: saline with Tween-80
  T/C: 106 % of control
dose: 400.0 mg/kg/injection, schedule: Q01DX009 (ip), vehicle: saline with Tween-80
  T/C: 102 % of control
dose: 400.0 mg/kg/injection, schedule: Q01DX009 (ip), vehicle: suspension in saline
  T/C: 119 % of control and 97 % of control
dose: 400.0 mg/kg/injection, schedule: Q04DX003 (ip), vehicle: saline with Tween-80
  T/C: 100 % of control
dose: 600.0 mg/kg/injection, schedule: Q01DX009 (ip), vehicle: saline with Tween-80
  T/C: 90 % of control
dose: 800.0 mg/kg/injection, schedule: Q01DX009 (ip), vehicle: saline with Tween-80
  T/C: 114 % of control
dose: 800.0 mg/kg/injection, schedule: Q01DX009 (ip), vehicle: suspension in saline
  T/C: 113 % of control and 94 % of control
dose: 1200.0 mg/kg/injection, schedule: Q01DX009 (ip), vehicle: saline with Tween-80
  T/C: 95 % of control
dose: 1600.0 mg/kg/injection, schedule: Q01DX009 (ip), vehicle: saline with Tween-80
  T/C: 99 % of control
dose: 1600.0 mg/kg/injection, schedule: Q01DX009 (ip), vehicle: suspension in saline
  T/C: 112 % of control and 95 % of control
dose: 2400.0 mg/kg/injection, schedule: Q01DX009 (ip), vehicle: saline with Tween-80
  T/C: 100 % of control
dose: 2400.0 mg/kg/injection, schedule: Q01DX009 (ip), vehicle: suspension in saline
  T/C: 117 % of control

## Cc1cnc(SC2C3CC4CC(C3)CC2C4)c(C)c1 (centres undefined)
dose: 50.0 mg/kg/injection, schedule: Q01DX009 (ip), vehicle: Klucel (hydroxypropylcellulose) (HPC)
  T/C: 99 % of control
dose: 100.0 mg/kg/injection, schedule: Q01DX009 (ip), vehicle: Klucel (hydroxypropylcellulose) (HPC)
  T/C: 94 % of control
dose: 200.0 mg/kg/injection, schedule: Q01DX009 (ip), vehicle: Klucel (hydroxypropylcellulose) (HPC)
  T/C: 88 % of control

## O/N=C1C=C/C(=C/c2ccccc2)c2ccccc2/1
[2]
  T/C: 96 % of control
[3]
  T/C: 92 % of control
[4]
  T/C: 92 % of control

## CCN(CC)CCC(CNc1c(C)cnc2cc(Cl)ccc12)c1ccc(OC)cc1 (centres undefined)
[5]
  T/C: 105 % of control
[6]
  T/C: 105 % of control
[7]
  T/C: 105 % of control

## OCCN1CCN(CCCN2c3cc(Cl)ccc3Sc3ccsc32)CC1
[2]
  T/C: 97 % of control
[3]
  T/C: 97 % of control

## O=C1NC(=O)C([N+](=O)[O-])C(=O)N1
dose: 25.0 mg/kg/injection, schedule: Q01DX001 (ip), vehicle: saline
  T/C: 100 % of control
dose: 50.0 mg/kg/injection, schedule: Q01DX001 (ip), vehicle: saline
  T/C: 108 % of control

## CCOC(=O)C[P+](c1ccccc1)(c1ccccc1)c1ccccc1
dose: 3.3 mg/kg/injection, schedule: Q01DX009 (ip), vehicle: saline sonified
  T/C: 95 % of control
dose: 6.25 mg/kg/injection, schedule: Q01DX009 (ip), vehicle: saline sonified
  T/C: 90 % of control
dose: 12.5 mg/kg/injection, schedule: Q01DX009 (ip), vehicle: saline sonified
  T/C: 100 % of control
dose: 25.0 mg/kg/injection, schedule: Q01DX009 (ip), vehicle: saline sonified
  T/C: 100 % of control

## O=[N+]([O-])c1nc(-[n+]2ccccc2)[n-]c1Br
dose: 100.0 mg/kg/injection, schedule: Q04DX003 (ip), vehicle: saline
  T/C: 98 % of control
dose: 200.0 mg/kg/injection, schedule: Q04DX003 (ip), vehicle: saline
  T/C: 100 % of control
dose: 400.0 mg/kg/injection, schedule: Q04DX003 (ip), vehicle: saline
  T/C: 95 % of control

## C[P+](C)(C)C
dose: 60.0 mg/kg/injection, schedule: Q01DX005 (ip), vehicle: saline with Tween-80
  T/C: 87 % of control
dose: 120.0 mg/kg/injection, schedule: Q01DX005 (ip), vehicle: saline with Tween-80
  T/C: 93 % of control

## CN([NH-])C(=S)[S-].CN([NH-])C(=S)[S-].[Pt+4]
[8]
  T/C: 107 % of control
[9]
  T/C: 100 % of control
[10]
  T/C: 90 % of control

## O=C(NCCCCC(NC(=O)c1ccccc1)C(=O)O)OCc1ccccc1 (centres undefined)
[5]
  T/C: 96 % of control
[6]
  T/C: 100 % of control
[7]
  T/C: 92 % of control

## S=c1nc(-c2ccccc2)[nH]c(=S)[nH]1
dose: 100.0 mg/kg/injection, schedule: Q01DX001 (ip), vehicle: Klucel (hydroxypropylcellulose) (HPC)
  T/C: 99 % of control
dose: 200.0 mg/kg/injection, schedule: Q01DX001 (ip), vehicle: Klucel (hydroxypropylcellulose) (HPC)
  T/C: 106 % of control
dose: 400.0 mg/kg/injection, schedule: Q01DX001 (ip), vehicle: Klucel (hydroxypropylcellulose) (HPC)
  T/C: 92 % of control

## Cn1c(C=O)cc2c(Cl)nccc21
[2]
  T/C: 103 % of control
[3]
  T/C: 103 % of control
[4]
  T/C: 101 % of control

## Cc1cc(=O)[nH]c2c3sc4ccccc4c(=O)c3c3ccccc3c12
dose: 12.5 mg/kg/injection, schedule: Q04DX003 (ip), vehicle: Klucel (hydroxypropylcellulose) (HPC)
  T/C: 99 % of control
[8]
  T/C: 99 % of control
[9]
  T/C: 95 % of control
[10]
  T/C: 98 % of control

## CCCCCCCCCCCC[n+]1cc2ccccc2cc1C
dose: 6.25 mg/kg/injection, schedule: Q01DX005 (ip), vehicle: saline with Tween-80
  T/C: 115 % of control and 122 % of control

## CC(C)(C)N(N)Cc1ccccc1
[11]
  T/C: 99 % of control
dose: 50.0 mg/kg/injection, schedule: Q01DX009 (ip), vehicle: saline
  T/C: 104 % of control
dose: 100.0 mg/kg/injection, schedule: Q01DX009 (ip), vehicle: saline
  T/C: 104 % of control

## O=C(OC1CC2CCC1C2)c1cc([N+](=O)[O-])cc([N+](=O)[O-])c1 (centres undefined)
dose: 50.0 mg/kg/injection, schedule: Q01DX009 (ip), vehicle: saline with Tween-80
  T/C: 107 % of control
dose: 100.0 mg/kg/injection, schedule: Q01DX009 (ip), vehicle: saline with Tween-80
  T/C: 100 % of control
dose: 100.0 mg/kg/injection, schedule: Q04DX002 (ip), vehicle: saline with Tween-80
  T/C: 108 % of control
[1]
  T/C: 90 % of control
dose: 200.0 mg/kg/injection, schedule: Q04DX002 (ip), vehicle: saline with Tween-80
  T/C: 105 % of control
dose: 400.0 mg/kg/injection, schedule: Q04DX002 (ip), vehicle: saline with Tween-80
  T/C: 100 % of control

## COc1cc(NCCCCCCNCC(C)C)c2nccc(C)c2c1
dose: 6.25 mg/kg/injection, schedule: Q01DX009 (ip), vehicle: saline
  T/C: 95 % of control
dose: 12.5 mg/kg/injection, schedule: Q01DX009 (ip), vehicle: saline
  T/C: 95 % of control
[11]
  T/C: 96 % of control

## N=C1CCCS1
dose: 25.0 mg/kg/injection, schedule: Q01DX005 (ip), vehicle: saline
  T/C: 115 % of control
[12]
  T/C: 150 % of control

## CC1(C)c2ccccc2-c2nc3ccccc3cc2C1N1CCOCC1 (centres undefined)
[5]
  T/C: 92 % of control
[6]
  T/C: 104 % of control
[7]
  T/C: 101 % of control

## COc1ccc2c(c1)C1(C)CCCC(C)(COC(C)=O)C1CC2 (centres undefined)
dose: 7.5 mg/kg/injection, schedule: Q01DX009 (ip), vehicle: saline with Tween-80
  T/C: 91 % of control
dose: 15.0 mg/kg/injection, schedule: Q01DX009 (ip), vehicle: saline with Tween-80
  T/C: 91 % of control
dose: 30.0 mg/kg/injection, schedule: Q01DX009 (ip), vehicle: saline with Tween-80
  T/C: 89 % of control

## CCN(CC)c1ccc2[nH]c3c(C(N)=O)cc(=O)c(=O)c=3oc2c1
dose: 12.5 mg/kg/injection, schedule: Q01DX005 (ip), vehicle: saline with Tween-80
  T/C: 104 % of control and 107 % of control
dose: 25.0 mg/kg/injection, schedule: Q01DX005 (ip), vehicle: saline with Tween-80
  T/C: 104 % of control and 117 % of control
[5]
  T/C: 107 % of control and 120 % of control
[6]
  T/C: 113 % of control and 122 % of control and 123 % of control

## O=C(O)c1cc(N=Nc2ccc(-c3ccc(N=Nc4c(S(=O)(=O)O)cc5cc(Nc6ccccc6)ccc5c4O)cc3)cc2)ccc1O
dose: 50.0 mg/kg/injection, schedule: Q01DX005 (ip), vehicle: saline
  T/C: 107 % of control
[12]
  T/C: 114 % of control
dose: 200.0 mg/kg/injection, schedule: Q01DX005 (ip), vehicle: saline
  T/C: 112 % of control

Source: PubChem BioAssay AID330 (DTP/NCI, 2004)
